Data on 14 compounds can be found in PubChem BioAssay (NCI).

Usually TGI stands for the concentration giving total growth inhibition. Read a low TGI as greater sensitivity of the cells.

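A five-concentration, 48-hour dose response in 96-well plates underlies each endpoint, interpolated linearly between surrounding concentrations. TGI: total growth inhibition.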 Some results are limits rather than exact numbers.

Test in all cases: DTP human tumour cell line panel, 48 h
The test system of assay [1] is SF-268 CNS.
Assay [2] deals with HOP-62 NSCLC.
Assay [3] deals with SR leukemia.
The subject of assay [4] is HOP-92 NSCLC.
The test system of assay [5] is SK-OV-3 ovarian.
For assay [6], the system named is OVCAR-4 ovarian.
In assay [7] the test system is BT-549 breast.
Assay [8] relates to SK-MEL-5 melanoma.
In assay [9] the test system is LOX IMVI melanoma.
The subject of assay [10] is KM12 colon.
Assay [11] concerns PC-3 prostate.
Assay [12] concerns OVCAR-3 ovarian.
Assay [13] concerns MCF7 breast.
Assay [14] has as its system A498 renal.
The subject of assay [15] is HS 578T breast.
In assay [16] the test system is COLO 205 colon.
The test system of assay [17] is HCT-15 colon.
In assay [18] the test system is SF-295 CNS.
The test system of assay [19] is NCI-H226 lung.
Assay [20] concerns HCC-2998 colon.

For the compound `O=C1C(c2c(O)[nH]c3ccc(S(=O)(=O)O)cc23)=Nc2ccc(Br)cc21`, the TGI in [1], in [2], in assay [3], in [4], in [5] and in assay [6] was above 100 µM throughout. Further, the TGI in [7], in [8], in assay [9], in assay [10], in assay [11] and in [12] was above 100 µM each time. Further, the TGI in [13], in [14], in assay [15], in [16], in [17] and in assay [18] was above 100 µM throughout. Besides, the TGI in assay [19] and in assay [20] was above 100 µM each time.
In the case of `O=c1ssc(Cl)c1Nc1c(Cl)ssc1=O`, the TGI was 51.8 µM in [1]; 42.4 µM in assay [2]; 15 µM in assay [3]; 41.6 µM in assay [4]; 59 µM in assay [5]; 35.8 µM in assay [6]. For the same compound, the TGI in assay [7] is 33.1 µM; in [8], 32 µM; in [9], 31.2 µM; in assay [10], 32.3 µM; in assay [11] it was 37.9 µM; in [12], 39.4 µM. In addition, the TGI was above 63 µM in assay [13]; 31.7 µM in [14]; above 100 µM in assay [15]; 31.5 µM in assay [16]; 39.6 µM in assay [17]; above 100 µM in assay [18]. For the same compound, the values for the TGI in assay [19] and in assay [20] were 79 µM and 41.3 µM, respectively.
Regarding `Cc1ccc2nc(-c3ccc(-n4c(C)nc(=O)c(-c5ccc(F)cc5)c4C)cc3)sc2c1`, the TGI in [1] is 53.9 µM; in [2] it was 45.5 µM; in assay [3], 29.5 µM; in assay [4] it was 36.9 µM; in assay [5], 29.3 µM; in assay [6] it was 56.6 µM. Further, the TGI came to 29.9 µM in [7]; 24.5 µM in assay [8]; 53.6 µM in [9]; 38.4 µM in assay [10]; 25.1 µM in assay [11]; 28.4 µM in assay [12]. Moreover, the TGI came to 34.7 µM in [13]; 32.9 µM in assay [14]; 96.9 µM in assay [15]; 20.5 µM in assay [16]; 34.4 µM in [17]; 33.1 µM in assay [18]. This compound also returned a TGI in assay [19] of 41.6 µM.
On to `Fc1ccc(OCc2nc3cc(C(F)(F)F)ccc3nc2-c2ccccc2)cc1`, for which the TGI in assay [1], in assay [2], in assay [3], in [4], in assay [6] and in assay [7] was above 100 µM in each case. The TGI in assay [8], in assay [9], in [10], in assay [11], in [12] and in [13] was above 100 µM each time. For the same compound, the TGI in [14], in assay [15], in assay [16], in assay [17], in [18] and in [19] was above 100 µM each time. Also, in assay [20], the TGI was above 100 µM.
On to `CC(=O)OC[C@@H]1[C@H]2CC[C@]3(C)[C@@H](OC(C)=O)CC[C@H]3[C@@H]2CC[C@H]1C1(C)SCCS1`, for which the TGI in assay [1], in [2], in [3], in assay [4], in assay [6] and in assay [7] was above 25 µM each time. The TGI in assay [8], in assay [9], in assay [10], in assay [11], in [12] and in assay [13] was above 25 µM in each case. The TGI in assay [14], in assay [15], in assay [16], in [17], in assay [18] and in assay [19] was above 25 µM each time. The same compound returned a TGI in assay [20] above 25 µM.
Regarding `C=CCCCC1SC2=C(CC)CCCN2C1=O` (stereo not drawn), the TGI in assay [1], in assay [2], in assay [3], in assay [4], in [5] and in assay [6] was above 100 µM each time. Besides, the TGI in assay [7], in assay [8], in assay [9], in [10], in assay [11] and in assay [12] was above 100 µM each time. Moreover, the TGI in assay [13], in assay [14], in assay [15], in [16], in assay [17] and in assay [18] was above 100 µM in each case. In [19], this compound showed a TGI above 100 µM.
Regarding `O=C(O)[C@@H]1CCC(=O)N1C(c1ccc2c(c1)OCO2)c1ccc2c(c1)OCO2`, the TGI in assay [1], in assay [2], in assay [3], in [4], in assay [6] and in assay [7] was above 100 µM each time. Further, the TGI in assay [8], in [9], in assay [10], in assay [11], in [12] and in assay [13] was above 100 µM throughout. Further, the TGI in [14], in [15], in assay [16], in assay [17], in [18] and in assay [19] was above 100 µM throughout. The compound also came in with a TGI in assay [20] above 100 µM.
With `CN1C(=O)N/C(=C\c2ccc(S(=O)(=O)N/N=C\C(O)C(O)C(O)CO)cc2)C1=O` (stereo not drawn), the TGI in assay [1], in [2], in assay [3], in assay [4], in [5] and in assay [6] was above 100 µM each time. Further, the TGI in assay [7], in assay [8], in assay [9], in [10], in [11] and in [12] was above 100 µM each time. The TGI in assay [13], in assay [14], in [15], in assay [16], in [17] and in assay [18] was above 100 µM in each case. The TGI in assay [20] was above 100 µM.
With `Cc1nc2ccccc2c(=O)n1NC(=O)c1ccc([N+](=O)[O-])cc1`, the TGI in assay [1], in [2], in assay [3], in [4], in assay [5] and in assay [6] was above 100 µM throughout. For the same compound, the TGI in [7], in [8], in assay [9], in [10], in assay [11] and in assay [12] was above 100 µM throughout. Besides, the TGI in assay [13], in assay [14], in assay [15], in [16], in assay [18] and in assay [19] was above 100 µM in each case. The compound also yielded a total growth inhibition concentration (TGI) in assay [20] above 100 µM.
As for `O1C2C1C1OC1C1OC1C1OC21` (stereo not drawn), the TGI in assay [1], in assay [2], in assay [3], in assay [4], in assay [5] and in [6] was above 100 µM each time. In addition, the TGI in assay [7], in [8], in assay [9], in [10], in assay [11] and in [13] was above 100 µM throughout. Further, the TGI in [14], in [15], in [16], in assay [17], in [18] and in [19] was above 100 µM in each case. This compound yielded a TGI in assay [20] above 100 µM.
On to `O=C1C(Cl)=C(N2C(=O)CCCC2=O)C(=O)c2ccccc21`, for which the TGI in assay [1] was above 100 µM; in [2] it was above 100 µM; in [3], 57.1 µM; in [4], 9.29 µM; in assay [5], above 100 µM; in assay [7], 36.2 µM. In addition, the TGI in assay [8] is 30.2 µM; in [9], 42.4 µM; in [10], above 100 µM; in assay [11] it was 41.7 µM; in [12], above 100 µM; in assay [13] it was 52.1 µM. Further, the TGI was 33.4 µM in [14]; above 100 µM in assay [15]; 19.1 µM in assay [16]; 25.6 µM in assay [17]; above 100 µM in assay [18]; above 100 µM in [19]. In addition, the TGI in assay [20] was 31.4 µM.
As to `Cc1cnc(-c2c[nH]c3ccccc23)nc1-c1c[nH]c2ccccc12`, the TGI came to 35.6 µM in [1]; 24.8 µM in assay [2]; 33.9 µM in assay [3]; 7.21 µM in assay [4]; 24 µM in assay [5]; 24.3 µM in assay [6]. For the same compound, the TGI in [7] turned out to be 67.7 µM; in [8], 20.5 µM; in [9], 17.1 µM; in [10], 15.6 µM; in assay [11] it was 14.2 µM; in assay [12], 21.7 µM. Moreover, the TGI was 19.1 µM in assay [13]; 7.03 µM in assay [14]; above 100 µM in assay [15]; 16.8 µM in assay [16]; 27 µM in assay [17]; 15.2 µM in assay [18]. The same compound registered a TGI in assay [20] of 15.8 µM.
Take `N#Cc1c(NCCc2ccc(F)cc2)c2ccccc2n2c1nc1ccccc12`: the TGI is 96.5 µM in [1]; above 100 µM in assay [2]; above 100 µM in [3]; 19.8 µM in [4]; above 100 µM in assay [5]; 9.16 µM in assay [6]. Moreover, the TGI in [7] was 72.6 µM; in assay [9] it was above 100 µM; in [10], above 100 µM; in assay [11] it was 82.7 µM; in assay [12], 66.4 µM; in assay [13] it was above 100 µM. Moreover, the TGI in assay [14] is 53.1 µM; in assay [15], 32 µM; in assay [16], above 100 µM; in assay [17], above 100 µM; in assay [18], 65.4 µM; in assay [19], 55.4 µM. The same compound registered a TGI in assay [20] above 100 µM.
As for `COc1cc(=O)n2c3ccccc3n(C)c2c1C#N`, the TGI in [1], in assay [2], in assay [3], in assay [4], in assay [5] and in [6] was above 100 µM in each case. Besides, the TGI in assay [7], in assay [8], in assay [10], in [11], in assay [12] and in assay [13] was above 100 µM in each case. For the same compound, the TGI in assay [14], in assay [15], in assay [16], in [17], in assay [18] and in assay [19] was above 100 µM throughout. In assay [20], this compound had a total growth inhibition concentration (TGI) above 100 µM.
